From US9850283B2, “Macrocyclic inhibitors of the PD-1/PD-L1 and CD80(B7-1)/PD-L1 protein/protein interactions” (BRISTOL-MYERS SQUIBB COMPANY, priority 2013, dated 2017)
Like-named read-outs stand apart in the source and are kept apart here. Starred links: 1 amine or outer side, 2 acyl side, 3 side chain; linkers in the order of their positions; H or OH if unused. Positions of bridges follow the written chain, without caps; N, C: chain ends. Non-standard residues stand in square brackets, D forms with d. Residues, ends and D or L forms follow the SMILES beside them. *: point of attachment. Phe(3,4,5-F3) = N[C@@H](Cc1cc(F)c(F)c(F)c1)C(=O)O; NHTrityl = c1ccc(C(N*)(c2ccccc2)c2ccccc2)cc1; NMe2Nal = CN[C@@H](Cc1ccc2ccccc2c1)C(=O)O; d(cisHyp) = O=C(O)[C@H]1C[C@@H](O)CN1; NMeF = CN[C@@H](Cc1ccccc1)C(=O)O; X4 = O=C([C@H]1COCCN1[*:1])[*:2]; 3Pal = N[C@@H](Cc1cccnc1)C(=O)O; dHyp = O=C(O)[C@H]1C[C@H](O)CN1; dNMeE = CN[C@H](CCC(=O)O)C(=O)O; NMeNle = CCCC[C@H](NC)C(=O)O; Orn = NCCC[C@H](N)C(=O)O; dThz = O=C(O)[C@H]1CSCN1; OtBu = CC(C)(C)O*; Sar = CNCC(=O)O

Experiments:
[1] = molecular target: T1, LK35.2-hPD-L1 cells / PE-labeled PD-1-Ig (Homo sapiens, UniProt Q9NZQ7); experiment: LK35.2-hPD-L1 cell binding high-content screening assay; assay type: cell-based; conditions: cell binding assay, cell line not given
T1 construct: expressed in transfected cells; host or cells: LK35.2 mouse B cell line
How it was run: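 Readout: high-content imaging of PE-PD-1-Ig bound to LK35.2-hPD-L1 cells. Cells plated overnight (RPMI/10% FCS); compound + 1 nM PE-PD-1-Ig, 1 h, 37 °C; 3× dPBS wash before imaging.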

Human PD-L1/PD-1 = molecular target: T2, Human PD-L1/PD-1 (Homo sapiens, UniProt Q9NZQ7); experiment: HTRF PD-1-Ig/PD-L1-His binding assay (human PD-L1)
T2 construct: made in house; host or cells: HEK293T
How it was run: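 Soluble Fc-fused PD-1 and His-tagged PD-L1 (truncated before the transmembrane region) were combined in dPBS with 0.1% (w/v) BSA and 0.05% (v/v) Tween-20. Binding was read by HTRF using europium cryptate anti-Ig antibody (1 nM final) and APC anti-His antibody (20 nM final).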

[2] = cluster symbol, read-out: CBA IC50 cluster
[3] = cluster symbol, read-out: HTRF IC50 cluster
[4] = value given instead of cluster, read-out: CBA IC50 value
[5] = value given instead of cluster, read-out: HTRF IC50 value

T1 sequence (Q9NZQ7 19-290): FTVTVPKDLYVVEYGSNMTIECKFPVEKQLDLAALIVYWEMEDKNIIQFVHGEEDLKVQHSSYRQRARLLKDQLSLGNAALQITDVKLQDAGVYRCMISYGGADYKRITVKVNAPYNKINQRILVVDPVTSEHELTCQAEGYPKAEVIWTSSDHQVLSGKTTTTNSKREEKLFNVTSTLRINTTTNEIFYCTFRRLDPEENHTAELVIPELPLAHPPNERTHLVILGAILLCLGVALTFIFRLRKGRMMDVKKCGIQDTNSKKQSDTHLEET
T2 sequence (Q9NZQ7 with tags, fused parts or gaps): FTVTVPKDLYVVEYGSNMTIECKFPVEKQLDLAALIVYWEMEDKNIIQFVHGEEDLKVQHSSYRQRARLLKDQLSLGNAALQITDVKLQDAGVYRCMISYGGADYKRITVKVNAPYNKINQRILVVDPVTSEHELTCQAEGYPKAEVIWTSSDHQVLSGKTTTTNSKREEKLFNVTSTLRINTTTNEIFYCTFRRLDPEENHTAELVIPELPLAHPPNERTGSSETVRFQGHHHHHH

IC50 [1, 2] [nM]	IC50 (Human PD-L1/PD-1; [3]) [nM]	SMILES	also measured
0.158 to 4.71	6.76 to 30.3	CCCC[C@H]1C(=O)N2C[C@H](O)C[C@@H]2C(=O)N[C@@H](CC(N)=O)C(=O)N[C@@H](C(C)C)C(=O)N(C)[C@@H](Cc2ccccc2)C(=O)N[C@@H](Cc2ccc(O)cc2)C(=O)N(C)[C@H](CCC(=O)O)C(=O)N[C@@H](Cc2c[nH]c3ccccc23)C(=O)N[C@@H](Cc2ccc(O)cc2)C(=O)N[C@@H](CCCCN)C(=O)N[C@H](C(=O)NCC(N)=O)CSCC(=O)N[C@@H](Cc2ccccc2)C(=O)N(C)[C@@H](Cc2ccccc2)C(=O)N1C [Example 3594] ({CH2CO}-F[NMeF][NMeNle][d(cisHyp)]NV[NMeF]Y[dNMeE]WYKCG-NH2; thioether N-13)	
		CCCC[C@H]1C(=O)N2C[C@H](O)C[C@@H]2C(=O)N[C@H](CC(=O)NC(c2ccccc2)(c2ccccc2)c2ccccc2)C(=O)N[C@@H](C(C)C)C(=O)N(C)[C@@H](Cc2ccccc2)C(=O)N[C@@H](Cc2ccc(O)cc2)C(=O)N(C)[C@H](CCC(=O)O)C(=O)N[C@@H](Cc2c[nH]c3ccccc23)C(=O)N[C@@H](Cc2ccc(O)cc2)C(=O)N[C@@H](CCCCN)C(=O)N[C@H](C(=O)NCC(N)=O)CSCC(=O)N[C@@H](Cc2ccccc2)C(=O)N(C)[C@@H](Cc2ccccc2)C(=O)N1C [Example 3595] ({CH2CO}-F[NMeF][NMeNle][d(cisHyp)][dD](NHTrityl)V[NMeF]Y[dNMeE]WYKCG-NH2; thioether N-13)	IC50 ([1]; CBA IC50 value, value given instead of cluster): 123 nM; IC50 (Human PD-L1/PD-1; HTRF IC50 value, value given instead of cluster): 991 nM
0.158 to 4.71	6.76 to 30.3	CCCC[C@H]1C(=O)N2C[C@H](O)C[C@@H]2C(=O)N[C@@H](CC(N)=O)C(=O)N[C@@H](C(C)C)C(=O)N(C)[C@@H](Cc2ccccc2)C(=O)N[C@@H](Cc2ccc(O)cc2)C(=O)N(C)[C@H](CCC(=O)O)C(=O)N[C@@H](Cc2c[nH]c3ccccc23)C(=O)N[C@@H](Cc2ccc(O)cc2)C(=O)N[C@@H](CCCCN)C(=O)N[C@H](C(=O)NCC(N)=O)CSCC(=O)N[C@@H](Cc2cc(F)c(F)c(F)c2)C(=O)N(C)[C@@H](Cc2ccccc2)C(=O)N1C [Example 3596] ({CH2CO}-[Phe(3,4,5-F3)][NMeF][NMeNle][d(cisHyp)]NV[NMeF]Y[dNMeE]WYKCG-NH2; thioether N-13)	
0.158 to 4.71	0.385 to 6.74	CCCC[C@H]1C(=O)N2C[C@H](O)C[C@@H]2C(=O)N[C@@H](CC(=O)O)C(=O)N[C@@H](C(C)C)C(=O)N(C)[C@@H](Cc2ccccc2)C(=O)N[C@@H](CCCN)C(=O)N2CCOC[C@@H]2C(=O)N[C@@H](Cc2c[nH]c3ccccc23)C(=O)N[C@@H](Cc2ccc(O)cc2)C(=O)N[C@@H](CCCN)C(=O)N[C@H](C(=O)NCC(N)=O)CSCC(=O)N[C@@H](Cc2cc(F)c(F)c(F)c2)C(=O)N(C)[C@@H](Cc2ccccc2)C(=O)N1C [Example 3598] ({CH2CO}-[Phe(3,4,5-F3)][NMeF][NMeNle][d(cisHyp)]DV[NMeF][Orn][X4]WY[Orn]CG-NH2; thioether N-13)	
0.158 to 4.71	0.385 to 6.74	CCCC[C@H]1C(=O)N2C[C@H](O)C[C@@H]2C(=O)N[C@@H](CC(=O)O)C(=O)N[C@@H](C(C)C)C(=O)N(C)[C@@H](Cc2ccccc2)C(=O)N[C@@H](CCC(=O)O)C(=O)N2CCOC[C@@H]2C(=O)N[C@@H](Cc2c[nH]c3ccccc23)C(=O)N[C@@H](Cc2ccc(O)cc2)C(=O)N[C@@H](CCCN)C(=O)N[C@H](C(=O)NCC(N)=O)CSCC(=O)N[C@@H](Cc2cc(F)c(F)c(F)c2)C(=O)N(C)[C@@H](Cc2ccccc2)C(=O)N1C [Example 3599] ({CH2CO}-[Phe(3,4,5-F3)][NMeF][NMeNle][d(cisHyp)]DV[NMeF]E[X4]WY[Orn]CG-NH2; thioether N-13)	
		CCCC[C@H]1C(=O)N2CSC[C@@H]2C(=O)N[C@@H](CC(=O)O)C(=O)N[C@@H](C(C)C)C(=O)N(C)[C@@H](Cc2ccccc2)C(=O)N[C@@H](Cc2ccc(O)cc2)C(=O)N(C)CC(=O)N[C@@H](Cc2c[nH]c3ccccc23)C(=O)N[C@@H](Cc2ccc(O)cc2)C(=O)N[C@@H](CC(C)C)C(=O)N[C@H](C(=O)NCC(N)=O)CSCC(=O)N[C@@H](Cc2ccccc2)C(=O)N(C)[C@@H](Cc2ccccc2)C(=O)N1C [Example 3600] ({CH2CO}-F[NMeF][NMeNle][dThz]DV[NMeF]Y[Sar]WYLCG-NH2; thioether N-13)	IC50 [1, 4]: 3.9 nM; IC50 (Human PD-L1/PD-1; [5]): 6.1 nM
		CCCC[C@H]1C(=O)N(C)CC(=O)N[C@@H](CC(=O)O)C(=O)N[C@@H](C(C)C)C(=O)N(C)[C@@H](Cc2ccccc2)C(=O)N[C@@H](Cc2ccc(O)cc2)C(=O)N2CSC[C@@H]2C(=O)N[C@@H](Cc2c[nH]c3ccccc23)C(=O)N[C@@H](Cc2ccc(O)cc2)C(=O)N[C@@H](CC(C)C)C(=O)N[C@H](C(=O)NCC(N)=O)CSCC(=O)N[C@@H](Cc2ccccc2)C(=O)N(C)[C@@H](Cc2ccccc2)C(=O)N1C [Example 3601] ({CH2CO}-F[NMeF][NMeNle][Sar]DV[NMeF]Y[dThz]WYLCG-NH2; thioether N-13)	IC50 [1, 4]: 1.79 nM; IC50 (Human PD-L1/PD-1; [5]): 6.91 nM
> 74.3	6.76 to 30.3	CCCC[C@H]1C(=O)N(C)CC(=O)N[C@@H](CC(=O)O)C(=O)N[C@@H](C(C)C)C(=O)N(C)[C@@H](Cc2ccccc2)C(=O)N[C@@H](Cc2ccc(O)cc2)C(=O)N(C)CC(=O)N[C@@H](Cc2c[nH]c3ccccc23)C(=O)N[C@@H](Cc2ccc(O)cc2)C(=O)N[C@@H](CC(C)C)C(=O)N[C@H](C(=O)NCC(N)=O)CSCC(=O)N[C@@H](Cc2ccccc2)C(=O)N[C@@H](Cc2cccnc2)C(=O)N1C [Example 3602] ({CH2CO}-F[3Pal][NMeNle][Sar]DV[NMeF]Y[Sar]WYLCG-NH2; thioether N-13)	
4.78 to 72.9	6.76 to 30.3	CCCC[C@H]1C(=O)N(C)CC(=O)N[C@@H](CC(N)=O)C(=O)N[C@@H](C(C)C)C(=O)N(C)[C@@H](Cc2ccccc2)C(=O)N[C@@H](Cc2ccc(O)cc2)C(=O)N(C)CC(=O)N[C@@H](Cc2c[nH]c3ccccc23)C(=O)N[C@@H](Cc2ccc(O)cc2)C(=O)N[C@@H](CCCN)C(=O)N[C@H](C(=O)NCC(N)=O)CSCC(=O)N[C@@H](Cc2ccccc2)C(=O)N(C)[C@@H](Cc2ccc3ccccc3c2)C(=O)N1C [Example 3603] ({CH2CO}-F[NMe2Nal][NMeNle][Sar]NV[NMeF]Y[Sar]WY[Orn]CG-NH2; thioether N-13)	
> 74.3	> 30.5	CCCC[C@H]1C(=O)N(C)CC(=O)N[C@@H](CC(=O)OC(C)(C)C)C(=O)N[C@@H](C(C)C)C(=O)N(C)[C@@H](Cc2ccccc2)C(=O)N[C@@H](Cc2ccc(O)cc2)C(=O)N(C)CC(=O)N[C@@H](Cc2c[nH]c3ccccc23)C(=O)N[C@@H](Cc2ccc(O)cc2)C(=O)N[C@@H](CC(C)C)C(=O)N[C@H](C(=O)NCC(N)=O)CSCC(=O)N[C@@H](Cc2ccccc2)C(=O)N[C@@H](Cc2cccnc2)C(=O)N1C [Example 3604] ({CH2CO}-F[3Pal][NMeNle][Sar]D(OtBu)V[NMeF]Y[Sar]WYLCG-NH2; thioether N-13)	
0.158 to 4.71	0.385 to 6.74	CCCC[C@H]1C(=O)N2C[C@@H](O)C[C@@H]2C(=O)N[C@@H](CC(N)=O)C(=O)N[C@@H](C(C)C)C(=O)N(C)[C@@H](Cc2ccccc2)C(=O)N[C@@H](CCC(N)=O)C(=O)N2CCOC[C@@H]2C(=O)N[C@@H](Cc2c[nH]c3ccccc23)C(=O)N[C@@H](Cc2ccc(O)cc2)C(=O)N[C@@H](CCCN)C(=O)N[C@H](C(=O)NCC(N)=O)CSCC(=O)N[C@@H](Cc2cc(F)c(F)c(F)c2)C(=O)N(C)[C@@H](Cc2ccccc2)C(=O)N1C [Example 3605] ({CH2CO}-[Phe(3,4,5-F3)][NMeF][NMeNle][dHyp]NV[NMeF]Q[X4]WY[Orn]CG-NH2; thioether N-13)	
0.158 to 4.71	0.385 to 6.74	CCCC[C@H]1C(=O)N2C[C@@H](O)C[C@@H]2C(=O)N[C@@H](CC(N)=O)C(=O)N[C@@H](C(C)C)C(=O)N(C)[C@@H](Cc2ccccc2)C(=O)N[C@@H](Cc2ccc(O)cc2)C(=O)N2CCOC[C@@H]2C(=O)N[C@@H](Cc2c[nH]c3ccccc23)C(=O)N[C@@H](Cc2ccc(O)cc2)C(=O)N[C@@H](CCCN)C(=O)N[C@H](C(=O)NCC(N)=O)CSCC(=O)N[C@@H](Cc2cc(F)c(F)c(F)c2)C(=O)N(C)[C@@H](Cc2ccccc2)C(=O)N1C [Example 3606] ({CH2CO}-[Phe(3,4,5-F3)][NMeF][NMeNle][dHyp]NV[NMeF]Y[X4]WY[Orn]CG-NH2; thioether N-13)	
0.158 to 4.71	0.385 to 6.74	CCCC[C@H]1C(=O)N2C[C@@H](O)C[C@@H]2C(=O)N[C@@H](CC(N)=O)C(=O)N[C@@H](C(C)C)C(=O)N(C)[C@@H](Cc2ccccc2)C(=O)N[C@@H](CCCN)C(=O)N2CCOC[C@@H]2C(=O)N[C@@H](Cc2c[nH]c3ccccc23)C(=O)N[C@@H](Cc2ccc(O)cc2)C(=O)N[C@@H](CCCN)C(=O)N[C@H](C(=O)NCC(N)=O)CSCC(=O)N[C@@H](Cc2cc(F)c(F)c(F)c2)C(=O)N(C)[C@@H](Cc2ccccc2)C(=O)N1C [Example 3607] ({CH2CO}-[Phe(3,4,5-F3)][NMeF][NMeNle][dHyp]NV[NMeF][Orn][X4]WY[Orn]CG-NH2; thioether N-13)	
0.158 to 4.71	0.385 to 6.74	CCCC[C@H]1C(=O)N2C[C@H](O)C[C@@H]2C(=O)N[C@@H](CC(N)=O)C(=O)N[C@@H](C(C)C)C(=O)N(C)[C@@H](Cc2ccccc2)C(=O)N[C@@H](CCC(=O)O)C(=O)N2CCOC[C@@H]2C(=O)N[C@@H](Cc2c[nH]c3ccccc23)C(=O)N[C@@H](Cc2ccc(O)cc2)C(=O)N[C@@H](CCCN)C(=O)N[C@H](C(=O)NCC(N)=O)CSCC(=O)N[C@@H](Cc2cc(F)c(F)c(F)c2)C(=O)N(C)[C@@H](Cc2ccccc2)C(=O)N1C [Example 3608] ({CH2CO}-[Phe(3,4,5-F3)][NMeF][NMeNle][d(cisHyp)]NV[NMeF]E[X4]WY[Orn]CG-NH2; thioether N-13)	
